# Assay results from patent US9371328B2, “Imidazopyridazinecarbonitriles useful as kinase inhibitors” (BRISTOL-MYERS SQUIBB COMPANY, priority 2008, dated 2016).
# How the values were obtained:
# CK2A1 (CK2α/β) = target: T1, CK2A1 (CK2α/β) (Homo sapiens, UniProt P68400); assay: CK2 kinase assay, CK2A1 (CK2α/β); type: biochemical; conditions: Table 1; read-out: CK2A1 (CK2α/β) (IC50)
# T1 construct: made in house
# Procedure: (§1) The effectiveness of compounds of the present invention as inhibitors of protein kinases can be readily tested by assays known to those skilled in the art. For example, in vitro protein kinase assays may be conducted with a relevant purified protein kinase and an appropriate synthetic substrate to determine the inhibitory activity of the compounds. […] Reaction mixtures were incubated at 30° C. for 1 hour, and reaction products were captured by binding to phosphocellulose (P81) filter plates. Incorporation of radioactive phosphate into the peptide substrate was determined by liquid scintillation counting. The potency of compounds in inhibiting CK2 is expressed as IC50, defined as the concentrations of compounds required to inhibit the enzymatic activity by 50%.
# (§2) The inhibitory activity of the instant compounds may also be measured by recombinant CK2 holoenzyme kinase assays. The assays were performed in U-bottom 384-well plates. The final assay volume was 30 μl prepared from 15 μl additions of enzyme and substrates (fluoresceinated peptide FL-RRRADDSDDDDD-NH2 and ATP) and test compounds in assay buffer (20 mM HEPES pH 7.4, 10 mM MgCl2, 100 mM NaCl, 0.015% Brij35 and 0.25 mM DTT). The reaction was initiated by the combination of bacterially expressed, CK2 α/β or CK2 α′/β holoenzyme with substrates and test compounds. The reaction was incubated at room temperature for 60 minutes and terminated by adding 30 μl of 35 mM EDTA to each sample. The reaction mixture was analyzed on the Caliper LABCHIP® 3000 (Caliper, Hopkinton, Mass.) by electrophoretic separation of the fluorescent substrate and phosphorylated product. Inhibition data were calculated by comparison to no enzyme control reactions for 100% inhibition and vehicle-only reactions for 0% inhibition. The final concentration of reagents in the CK2 α/β assay was 25 μM ATP, 1.5 μM FL-RRRADDSDDDDD-NH2, […] CK2 α/β holoenzyme, and 1.6% DMSO. The final concentration of reagents in the CK2 α′/β assay was 10 μM ATP, 1.5 μM FL-RRRADDSDDDDD-NH2, 100 pM CK2 α′/β holoenzyme, and 1.6% DMSO. Dose response curves were generated to determine the concentration required inhibiting 50% of kinase activity (IC50). Compounds were dissolved at 10 mM in dimethylsulfoxide (DMSO) and evaluated at eleven concentrations. IC50 values were derived by non-linear regression analysis.
# CK2A2 (CK2α′/β) = target: T2, CK2A2 (CK2α′/β) (Homo sapiens, UniProt P19784); assay: CK2 kinase assay, CK2A2 (CK2α′/β); type: biochemical; conditions: Table 1; read-out: CK2A2 (CK2α′/β) (IC50)
# T2 construct: made in house
# Procedure: as §1, §2
# HCT116 = assay: Cell proliferation inhibition assay (MTT/MTS); type: cell-based; conditions: Homo sapiens, HCT-116, Table 1, 72 h with compound
# Procedure: Compounds were evaluated for their ability to inhibit cell proliferation, using an assay that measures mitochondrial metabolic activity, that is directly correlated with cell numbers. Cells were plated at 2000 cells/well in 96-well plates and were cultured for 24 h in RPMI-1640 supplemented with 2% fetal bovine serum, before test compounds were added. Compounds were diluted in culture medium such that the final concentration of dimethyl sulfoxide never exceeded 1%. Following the addition of compounds, the cells were cultured for an additional 72 h before cell viability was determined by measuring the conversion of 3-(4,5-dimethylthiazol-2-yl)-2,5-diphenyltetrazolium bromide (MTT) dye using the CellTiter96 kit (Promega) or by measuring the conversion of [3-(4,5-dimethylthiazol-2-yl)-5-(3-carboxymethoxyphenyl)-2-(4-sulfophenyl)-2H-tetrazolium (MTS) dye using the CELLTITER 96® AQueous (Promega).
# T1 sequence (P68400 whole entry, species assumed): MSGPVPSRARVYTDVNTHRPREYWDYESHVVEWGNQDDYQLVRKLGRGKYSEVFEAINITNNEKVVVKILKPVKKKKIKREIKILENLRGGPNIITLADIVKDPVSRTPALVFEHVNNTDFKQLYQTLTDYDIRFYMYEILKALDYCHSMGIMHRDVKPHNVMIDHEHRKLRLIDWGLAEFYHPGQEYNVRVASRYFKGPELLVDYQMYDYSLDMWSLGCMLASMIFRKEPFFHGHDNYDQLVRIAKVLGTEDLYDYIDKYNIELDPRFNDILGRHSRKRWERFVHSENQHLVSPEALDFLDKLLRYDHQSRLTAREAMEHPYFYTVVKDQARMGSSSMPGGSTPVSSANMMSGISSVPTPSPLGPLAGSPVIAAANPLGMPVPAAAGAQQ
# T1 sequence (P67870 whole entry partner, species assumed): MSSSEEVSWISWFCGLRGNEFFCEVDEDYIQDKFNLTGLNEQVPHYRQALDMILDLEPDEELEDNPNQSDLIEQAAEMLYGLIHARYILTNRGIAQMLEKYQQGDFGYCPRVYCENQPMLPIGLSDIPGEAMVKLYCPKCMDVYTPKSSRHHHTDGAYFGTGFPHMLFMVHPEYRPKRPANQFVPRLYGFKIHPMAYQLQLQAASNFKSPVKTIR
# T2 sequence (P19784 whole entry, species assumed): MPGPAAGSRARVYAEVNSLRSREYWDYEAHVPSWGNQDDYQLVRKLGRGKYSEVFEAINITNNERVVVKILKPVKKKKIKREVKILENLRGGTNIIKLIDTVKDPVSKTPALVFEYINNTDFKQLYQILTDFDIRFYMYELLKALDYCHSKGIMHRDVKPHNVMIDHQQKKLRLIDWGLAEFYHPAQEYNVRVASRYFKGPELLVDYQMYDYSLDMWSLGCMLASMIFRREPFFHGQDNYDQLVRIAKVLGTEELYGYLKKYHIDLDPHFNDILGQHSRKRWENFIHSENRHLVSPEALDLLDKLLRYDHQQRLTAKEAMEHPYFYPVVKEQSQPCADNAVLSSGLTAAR
# T2 sequence (P67870 whole entry partner, species assumed): as the sequence (P67870 whole entry partner, species assumed) above
SMILES,IC50 (CK2A1 (CK2α/β)),IC50 (CK2A2 (CK2α′/β)),IC50 (HCT116)
"N#Cc1cnc2c(NC3CC3)cc(Nc3ccc(F)c(-n4cnnc4)c3)nn12 [Example 46, 8-(Cyclopropylamino)-6-((4-fluoro-3-(4H-1,2,4-triazol-4-yl)phenyl)amino)imidazo [1,2-b]pyridazine-3-carbonitrile]",4.3 nM,2.4 nM,150 nM
"N#Cc1cnc2c(NC3CC3)cc(Nc3ccc(Cl)c(-c4ncco4)c3)nn12 [Example 81, 6-((4-Chloro-3-(1,3-oxazol-2-yl)phenyl)amino)-8-(cyclopropylamino)imidazo [1,2-b]pyridazine-3-carbonitrile]",512 nM,115 nM,> 1000 nM
"N#Cc1ccc(Nc2cc(NC3CC3)c3ncc(C#N)n3n2)cc1C(F)(F)F [Example 31, 6-((4-Cyano-3-(trifluoromethyl)phenyl)amino)-8-(cyclopropylamino)imidazo [1,2-b]pyridazine-3-carbonitrile]",143 nM,25.7 nM,460 nM
"N#Cc1ccnc(Nc2cc(NC3CC3)c3ncc(C#N)n3n2)c1 [Example 168, 6-((4-Cyano-2-pyridinyl)amino)-8-(cyclopropylamino) imidazo[1,2-b]pyridazine-3-carbonitrile]",11.9 nM,4.9 nM,128 nM
"CC(=O)N1CCc2ccc(Nc3cc(NC4CC4)c4ncc(C#N)n4n3)cc21 [Example 64, 6-((1-Acetyl-2,3-dihydro-1H-indol-6-yl)amino)-8-(cyclopropylamino)imidazo [1,2-b]pyridazine-3-carbonitrile]",12 nM,1 nM,48 nM
"COc1cc(Nc2cc(NC3CC3)c3ncc(C#N)n3n2)cc(-n2nnnc2C)c1 [Example 37, 8-(Cyclopropylamino)-6-((3-methoxy-5-(5-methyl-1H-tetrazol-1-yl)phenyl)amino) imidazo[1,2-b]pyridazine-3-carbonitrile]",11 nM,4.5 nM,163 nM
"CC(=O)Nc1cc(Nc2cc(NC3CC3)c3ncc(C#N)n3n2)ccc1C [Example 1, N-(5-((3-Cyano-8-(cyclopropylamino)imidazo[1,2-b]pyridazin-6-yl)amino)-2-methylphenyl)acetamide]",6 nM,7.5 nM,30 nM
"N#Cc1cnc(Nc2cc(NC3CC3)c3ncc(C#N)n3n2)s1 [Example 57, 6-((5-Cyano-1,3-thiazol-2-yl)amino)-8-(cyclopropylamino) imidazo[1,2-b]pyridazine-3-carbonitrile]",310 nM,58.2 nM,521 nM
"N#Cc1cnc2c(NC3CC3)cc(Nc3cccc(-c4nnco4)c3)nn12 [Example 82, 8-(Cyclopropylamino)-6-((3-(1,3,4-oxadiazol-2-yl)phenyl)amino)imidazo[1,2-b]pyridazine-3-carbonitrile]",479 nM,126 nM,127 nM
"N#Cc1cnc2c(NC3CC3)cc(Nc3cccc(C(=O)O)c3)nn12 [Example 44, 3-((3-Cyano-8-(cyclopropylamino)imidazo [1,2-b]pyridazin-6-yl)amino) benzoic acid]",1310 nM,35.1 nM,> 1000 nM
"COc1ccc(Nc2cc(NC3CC3)c3ncc(C#N)n3n2)cc1OC [Example 56, 8-(Cyclopropylamino)-6-((3,4-dimethoxyphenyl)amino)imidazo[1,2-b] pyridazine-3-carbonitrile]",155 nM,35.9 nM,482 nM
